The source of these data is EP0974594A1, “Artemisinin derivatives as anti-infective agent” (The Hong Kong University of Science & Technology, priority 1998, dated 2000).

Assay type in all cases: cell-based
For one assay, the system named is Eimeria tenella. Description: Screening of compounds against Eimeria tenella cell cultures in vitro (chick kidney cell monolayers, microscopic evaluation). Particulars: chick kidney cells, day 5 post infection. The protocol: (b) Screening of Compounds again Eimeria Tenella cell cultures in vitro
Cells from kidneys of 19 day old chicks are cultured as monolayers in 96-well plates (Falcon 3872) in a medium of Hanks lactalbumine hydrolysate, 5% fetal calf serum, 1% glutamine and 1% non-essential amino acids. After two days at 42°C under 5% CO2, the culture was infected with excised sporozoites of Eimeria tenella at about […] per well. Test compounds were dissolved in DMSO and diluted with culture medium to a maximum end concentration of 10µg ml^-1. The dilution steps were 1:10. On day 5 post infection, the cultures were evaluated under a microscope at 100-fold magnification and the condition of the host cells and the amount of intact schizonts and free merozoites was determined.

The subject of assay [1] is Neospora caninum tachyzoites. Nature of the assay: Screening of compounds against Neospora caninum cell cultures in vitro (microscopic evaluation of infected host cell monolayer). Also on record: key: 0 = no effect; 1 = weak effect; 2 = full effect; T = cytotoxic. The settings on record: VERO or ED host cells, evaluation 4 days after treatment. On the procedure:
(a) Screening of compounds against Neospora Caninum cell cultures in vitro.
Screening was conducted in 96-well plates (Falcon 3872). A monolayer of host cells (VERO or ED) were placed on a cell culture plate. Non-infected monolayers of cells were cultured in two 50 ml tissue culture bottles (50 cm^3 cell culture area). The cell layer was detached with trypsin-EDTA (5 ml. Gibco 45300-019) in a CO2-culture cupboard at 37°C. After 10 minutes, most of the cells were detached. The cells were transferred with a 5 ml pipette into a 50 ml centrifuge tube (Greiner, B769331) containing about 1 ml warmed fetal calf serum. After centrifugation for 5 minutes at 1500 rpm (Varifuge 3.0, Heraeus), the liquid was removed and the cell pellet suspended in RPMI medium (100 ml, 95% RPMI 1640, 2% FCS, 1% L-glutamine, 1% sodium hydrogen carbonate, 1% penicillin/streptomycin). The cell suspension was pipetted into six 96-well plates at 150 µl per well. The coated cell culture plates were placed in an incubation cupboard at 37°C under 5% CO2 for 24 hours. The cells were then infected with Neospora caninum tachyzoites at a concentration of 48,000 tachyzoites per well. This was followed by incubation at 37°C under 5% CO2 for 24 hours.
The test compounds (0.5 - 1.5 mg) were weighed into 1.5 ml eppendorf vessels and dissolved in 1 ml dimethyl sulphoxide, corresponding to a dilution of about 1 x 10^-3 g ml^-1. The medium used for further dilution consisted of 87% RPMI 1640, 10% FCS, 1% L-glutamine, 1% sodium hydrogen carbonate, 1% penicillin/streptomycin. In the first screening, concentrations of 10^-5, 10^-6 and 10^-7 g ml^-1 were used. The diluted preparations were then transferred to the cell culture plates at a volume of 150 µl per well after 24 hour infection with Neospora caninum. For the first row, untreated medium was used; this row contained infected and uninfected cells as controls. The cell plate was incubated at 37°C under 5% CO2 for 5 days. Microscopic evaluation was conducted 4 days after treatment and 5 days after infection at a magnification of 25 x 10 in an inverse microscope according to the following evaluation scheme.

Assay [2] concerns Plasmodium Falciparum D6 Strain (Chloroquine sensitive). Nature of the assay: In vitro screening against Plasmodium falciparum, radiolabelled hypoxanthine incorporation, D6 strain. Particulars: for IC50 / IC90: Plasmodium falciparum; for IC50: read-out: In vitro activity: IC50; for IC90: read-out: In vitro activity: IC90. The source says: (§1) (c) In Vitro Screening against Plasmodium Falciparum
Two parasite strains - W2 resistant to chloroquine, and D6 sensitive to chloroquine but resistant to mefloquine were used. In Table IV below, the best compounds should show no cross resistance between the two strains.
(§2) The assay relies on incorporation of radiolabelled hypoxanthine by the parasite and inhibition of incorporation is attributed to activity of known or candidate antimalarial drugs. For each assay, proven antimalarials such as chloroquine, mefloquine, quinine, artemisinin and pyrimethamine were used as controls. The incubation period was 66 hours, and the starting parasitemia was 0.2% with 1% hematocrit. The medium was an RPMI-1640 culture with no folate or p-aminobenzoic acid. Albumax rather than 10% normal heat inactivated human plasma was used as, with Albumax, less protein binding is observed, and compounds elicit slightly higher activities in this model. If a compound was submitted with no prior knowledge of activity, it was dissolved directly in dimethyl sulphoxide (DMSO), and diluted 400 fold with complete culture medium. The unknown compound was started at a maximum concentration of 50,000 ng ml^-1 and sequentially diluted 2-fold for 11 times to give a concentration range of 1048 fold. These dilutions were performed automatically by a Biomek 1000 Liquid Handling System in 96-well microtiter plates. The diluted drugs were then transferred to test plates, 200 µl of parasitized erythrocytes were added, and incubated at 37°C in a controlled environment of 5% CO2, 5% O2 and 90% N2. After 42 hours, 25 µl of ^3H-hypoxanthine was added, and the plates incubated for an additional 24 hours. After 66 hours, the plates were frozen at -70°C to lyse the red cells, and then thawed and harvested onto glass fiber filter mats in a 96-well harvester. The filter mats were then counted in a scintillation counter. For each drug, the concentration response profile was determined and 50%, 90% and 10% inhibitory concentrations (IC50, IC90 and IC10) were determined by a non-linear logistic dose response analysis program.
(§3) A prescreen format can be used wherein a 3-dilution assay may be used to determine activity at high medium or low concentrations. The concentrations were selected as 50,000, 500 and 50 ng ml^-1. These were performed in duplicate on a 96-well format plate with 14 test compounds and one known (standard) compound per plate. The system was automated with a Biomek diluter for mixing and diluting the drugs, and adding drugs and parasites to a test plate.
In the prescreen format, if the ANALYSIS FIELD (AF) has a "<", then the compound was "very active" and the IC values are most likely to be below the last dilution value (in nanograms/ml), which is listed next to AF. In most cases, these compounds were run again at lower starting concentration to determine the true IC value. If the AF has a ">", then the IC value is greater than the prescreen dilution value; thus "AF>250" means that the IC value is greater than 250 ng ml^-1 and no further screening is carried out. In such cases, values of 0.00 are entered for IC values.

For assay [3], the system named is Plasmodium Falciparum W2 Strain (Chloroquine resistant). Description: In vitro screening against Plasmodium falciparum, radiolabelled hypoxanthine incorporation, W2 strain. The settings on record: for IC50 / IC90: Plasmodium falciparum; for IC50: read-out: In vitro activity: IC50; for IC90: read-out: In vitro activity: IC90. The protocol:
as §1
Two parasite strains - W2 resistant to chloroquine, and D6 sensitive to chloroquine but resistant to mefloquine were used.
as §2, with “Albumax rather than 10% normal heat inactivated human plasma was used as, with Albumax, less protein binding is observed, and compounds elicit slightly higher activities in this model.” left out, “The unknown compound was started at a maximum concentration of 50,000 ng ml^-1 and sequentially diluted 2-fold for 11 times to give a concentration range of 1048 fold.” left out
as §3
In the prescreen format, if the […] […] If the AF has a ">", then the IC value is greater than the prescreen dilution value; thus "AF>250" means that the IC value is greater than 250 ng ml^-1 and no further screening is carried out. In such cases, values of 0.00 are entered for IC values.

[4] abbreviates: D6 Strain (Chloroquine sensitive), 66 hours incubation.

SMILES strings stand for the structures. In brackets after ≈: the same amount, converted by molar mass. Where two headings read alike, the source gives them in different places.

Turning to `C[C@@H]1CC[C@H]2[C@@H](C)C(=O)O[C@@H]3O[C@@]4(C)CC[C@@H]1[C@]32OO4` [Artemisinin, artemisinin], the results for the “Evaluation (effectiveness)” value in the assay with Eimeria tenella (Dose 10^-5 g/ml), with Eimeria tenella (Dose 10^-6 g/ml) and with Eimeria tenella (Dose 10^-7 g/ml) were 2 (2 = active), 1 (1 = weakly active) and 0 (0 = inactive), respectively. For the same compound, in assay [1] (Dose 10^-5 g/ml), the “Evaluation (observable effect)” value is given as 0.
Regarding `CC(=O)O[C@@H]1O[C@@H]2O[C@@]3(C)CC[C@H]4[C@H](C)CC[C@@H]([C@H]1C)[C@@]24OO3` [Example 1, 10-dihydroartemisinyl ethanoate], the “In vitro activity: (IC10)” value in assay [2] (setting [4]) is 127.91 ng/mL; in assay [3] (W2 Strain (Chloroquine resistant), 66 hours incubation), 86.88 ng/mL. The half-inhibitory concentration (IC50) was 172 ng/mL (≈ 526 nM) in assay [2] (D6, 66 h) and 119 ng/mL (≈ 365 nM) in assay [3] (W2, 66 h). The IC90 is 231 ng/mL (≈ 706 nM) in assay [2] (D6, 66 h) and 163 ng/mL (≈ 500 nM) in assay [3] (W2, 66 h). For the same compound, the “Evaluation (effectiveness)” value in the assay with Eimeria tenella (Dose 10^-7 g/ml) is 1 (1 = weakly active); in the assay with Eimeria tenella (Dose 10^-8 g/ml) it was 0 (0 = inactive). Also, the “Evaluation (observable effect)” value in assay [1] (Dose 10^-5 g/ml) is given as 2; in assay [1] (Dose 10^-6 g/ml), 1; in assay [1] (Dose 10^-7 g/ml), 0.
With `C[C@H]1[C@@H](OC(=O)c2ccccc2)O[C@@H]2O[C@@]3(C)CC[C@H]4[C@H](C)CC[C@@H]1[C@@]24OO3` [Example 2, 10β-dihydroartemisinyl benzoate], the “In vitro activity: (IC10)” value in assay [2] (setting [4]) came out at 0.02 ng/mL; in assay [3] (W2, 66 h) it was 0.03 ng/mL. Also, the IC50 in assay [2] (setting [4]) turned out to be 0.03 ng/mL (≈ 0.0772 nM); in assay [3] (W2, 66 h) it was 0.07 ng/mL (≈ 0.18 nM). For the same compound, the 90% effect concentration (IC90) worked out at 0.03 ng/mL (≈ 0.0772 nM) in assay [2] (setting [4]) and 0.21 ng/mL (≈ 0.541 nM) in assay [3] (W2, 66 h). The figures for the “Evaluation (effectiveness)” value in the assay on Eimeria tenella (Dose 10^-5 g/ml), in the assay with Eimeria tenella (Dose 10^-6 g/ml) and with Eimeria tenella (Dose 10^-7 g/ml) were 2 (2 = active), 2 (2 = active) and 0 (0 = inactive), respectively. The “Evaluation (observable effect)” value in assay [1] (Dose 10^-5 g/ml) worked out at 2; in assay [1] (Dose 10^-6 g/ml) it was 1; in assay [1] (Dose 10^-7 g/ml), 0.
Regarding `C[C@H]1[C@@H](OC(=O)c2ccc3c(c2)C(=O)c2ccccc2C3=O)O[C@@H]2O[C@@]3(C)CC[C@H]4[C@H](C)CC[C@@H]1[C@@]24OO3` [Example 7], in assay [2] (setting [4]), the “In vitro activity: (IC10)” value amounted to 0.27 ng/mL, the IC50 was found to be 0.44 ng/mL (≈ 0.849 nM) and the IC90 was 0.71 ng/mL (≈ 1.37 nM). In assay [3] (W2, 66 h), the IC50 turned out to be 0.48 ng/mL (≈ 0.926 nM), the concentration for an effect of 90% (IC90) turned out to be 1.1 ng/mL (≈ 2.12 nM) and the “In vitro activity: (IC10)” value was 0.21 ng/mL.
Regarding `C[C@H]1[C@H](OC(=O)CCC(=O)[O-])O[C@@H]2O[C@@]3(C)CC[C@H]4[C@H](C)CC[C@@H]1[C@@]24OO3.[Na+]` [Sodium Artesunate, sodium artesunate], the figures for the “Evaluation (effectiveness)” value with Eimeria tenella (Dose 10^-6 g/ml), in the assay on Eimeria tenella (Dose 10^-7 g/ml) and in the assay with Eimeria tenella (Dose 10^-8 g/ml) were 2 (2 = active), 2 (2 = active) and 0 (0 = inactive), respectively. For the same compound, the entries for the “Evaluation (observable effect)” value in assay [1] (Dose 10^-5 g/ml) and in assay [1] (Dose 10^-6 g/ml) were 2 and 0, respectively.

By IC50 is commonly meant the concentration at which inhibition is half-maximal. Usually IC90 stands for the concentration at which the effect reaches the 90% level.
